In US8980887B2, “2-aryl imidazo[1,2-a]pyridine-3-acetamide derivatives, preparation methods and uses thereof” (Institute of Pharmacology, priority 2010, dated 2015):

Key:
[1] = target: TSPO protein separated and purified from rat heart (Rattus norvegicus (Rat), UniProt P16257); experiment: TSPO and radioligand (3H-PK11195) competitive binding test; details: for Inhibition rate (%): n = 6 times
Experimental: In the present test, TSPO protein separated and purified from rat heart was used as screening target, via competitive binding test with radioligand (^3H-PK11195), to screen TSPO ligand compounds.
Wister rats, 220-260 g, female and male, were sacrificed by decapitation and the rat heart were rapidly separated, weighed and to which homogenized in 10 times volume of Tris-HCl buffer solution (50 mM Tris-HCl, 5 mM MgCl2, 1 mM EDTA, 0.5% (W/V) BSA, 1 mM PMSF, 3 μg/ml proteinase inhibitor, 0.1% NaN3, 0.32M sucrose, pH 7.4) at 15,000 rpm for 30 s, total 5 times. The homogenate was centrifuged under 1000×g for 10 minutes and the supernatant was then centrifuged under 30000×g for 20 minutes. The precipitate was collected, and resuspended with 10 times volume of Tris-HCl buffer solution (pH 7.4) relative to the original weight, then centrifuged under 30000×g for 20 minutes. The precipitate was washed with the same buffer solution, centrifuged under 30000×g for 20 minutes and the precipitate was suspended with the above buffer solution. After sub-packaged (the whole operation procedures were performed under ice bath), the product was stored at −80° C.
3) Competitive Binding Test of Drug to the Receptor (Rat Heart TSPO) and Radioligand (^3H-PK11195):
(1) tubes were placed in reaction condition of 30° C.
(2) all tubes were added with 20 μg of receptor protein in order;
(3) the test tubes were added in order with 20 μL of drugs in certain concentrations;
(4) the non-specific binding tubes were added with 20 μL of non-tagged ligand (PK11195), the final concentration of the non-tagged ligand was 0.1 mM, pre-reacted for 30 min;
(5) all tubes were added in order with 25 μL ^3H-PK11195, the final concentration of the labeled ligand was 1.5 nM;
(6) Tris-HCl Buffer pH7.4 was used to complement the reaction volumes of all tubes to reach 200 μL;
(7) the reaction was performed under 30° C. reaction condition for 1 h;
(8) Then samples were applied to 49-type glass fibre filter, vacuum suction filtered, then washed with 2 ml ice-cold Tris-HCl buffer solution (50 mM Tris-HCl buffer solution, 1 mM EDTA, 5 mM MgCl2, 1 mM PMSF, 0.1% NaN3, 3 μg/ml proteinase inhibitor, pH 7.4). The filter was dried and placed in a scintillation vial with 1 ml of scintillation fluid. The radio-activity was measured by a scintillation counter.

mice [2] = experiment: Mice open field spontaneous locomotor activity test; format: in vivo; details: intragastric
Excerpt: Experimental mechanism: the aim was to observe the effects of drugs on central nervous excitation, so as to exclude false positive reactions of anxiolytic or antidepressant effects caused by central nervous excitation.
1) Experimental device: the mice open field box was a colorless transparent organic glass box (30×36×25 cm), which bottom surface was divided into 9 lattices.
2) Experimental operation: Compound 8(8^#, YL-IPA08), Compound 10(10^#, YL-IPA10), Compound 11(11^#, YL-IPA11) and Compound 13(13^#, YL-IPA13) (separately having three dose groups of 0.03, 0.3, 3 mg/kg) and blank control (distilled water, DW) were administered intragastrically, and the test started after 55 min. During test, the mice were placed in the central area of the open field spontaneous locomotor activity observation box, started timing immediately, the spontaneous activities of mice within 5 min were recorded artificially (observation indexes: number of rearings, number of crossings).

mice [3] = experiment: Mice tail suspension test; format: in vivo
Excerpt: Experimental mechanism: mice tail suspension test was an acute behavioral despair model established by Steru et al (1985). […] This model was easy in operation, with good predictability, and was the most popular model for screening antidepressants. 1) Experimental device: an experimental frame with spacing boards which dividing the experimental frame into 2 experimental chambers (25×25×35 cm). A clamp is mounted on a through cross rod in the chamber. Male Kunming mice weighing 20-25 g. The mice were intragastrically administered with Compound 8, vehicle (distilled water, DW) or positive control drug (desipramine, DMI). After 1 h, wrap adhesive tape around the mouse's tail three quarters of the distance from the base of the tail and then suspend the animals by passing the suspension hook through the adhesive tape 5 cm above the table. The duration of immobility in the last 4 min of total 6 min test was recorded.

mice [4] = experiment: Mice elevated plus maze test; format: in vivo
mice [5] = experiment: Blocking effects of TSPO antagonist PK11195 on Compound 8 antidepressant activity in mice tail suspension test; format: in vivo; details: 3 mg/kg, ip
Experimental: The optimum dose (0.1 mg/kg) of YL-IPA08 in antidepressant effect of mice in tail suspension model was used to perform drug antagonism test, and the method was identical to that of Example 43, except that PK11195 group and PK11195+Compound 8 antagonism group with single intraperitoneal injection (ip) were added, wherein the antagonism group was administered by intraperitoneal injection with PK11195 simultaneously when Compound 8 was intragastrially administered.
Statistic method: the results were expressed in mean±SEM. The result was determined by two-way analysis of variance, and Bonferroni test was used for group comparison.

[6] = doses 0.03, 0.3, 3 mg/kg, 55 min after dosing, 5 min observation
[7] = 9 gradient concentrations, plotting and fitting

Row | Structure (SMILES) | Inhibition rate (%) ([1]; 1 × 10^−5M) | Inhibition rate (%) ([1]; 1 × 10^−7M) | Inhibition rate (%) ([1]; 1 × 10^−9M) | melting point | other results
1 | CCN(Cc1ccccn1)C(=O)Cc1c(-c2ccc(Cl)c(Cl)c2)nc2cc(C)ccn12.Cl [Compound 8, N-ethyl-N-(2-pyridinylmethyl)-2-(3,4-dichlorophenyl)-7-methylimidazo[1,2-a]pyridine-3-acetamide.hydrochloride] | 100% | 89% | 30% | 217 to 220 °C | number of rearings, number of crossings (open field spontaneous activity) versus control (mice [2]; [6]): equivalent to those of the control; optimum dose in antidepressant effect (mice [3]; mice tail suspension model): 0.1 mg/kg
2 | CCN(Cc1ccncc1)C(=O)Cc1c(-c2ccc(Cl)c(Cl)c2)nc2cc(C)ccn12.Cl [Compound 10, N-ethyl-N-(4-pyridinylmethyl)-2-(3,4-dichlorophenyl)-7-methylimidazo[1,2-a]pyridine-3-acetamide.hydrochloride] | 100% | 85% | 23% | 250 to 252 °C | number of rearings, number of crossings (open field spontaneous activity) versus control (mice [2]; [6]): equivalent to those of the control
3 | COCCN(Cc1ccccn1)C(=O)Cc1c(-c2ccc(Cl)c(Cl)c2)nc2cc(C)ccn12.Cl [Compound 11, N-(2-methoxyethyl)-N-(2-pyridinylmethyl)-2-(3,4-dichlorophenyl)-7-methylimidazo[1,2-a]pyridine-3-acetamide.hydrochloride] | 100% | 65% | 29% | 236 to 238 °C | number of rearings, number of crossings (open field spontaneous activity) versus control (mice [2]; dose 3 mg/kg): equivalent to the control; number of rearings, number of crossings (open field spontaneous activity) versus control (mice [2]; doses 0.03 and 0.3 mg/kg): lower than the control
4 | CCN(Cc1ccccc1)C(=O)Cc1c(-c2ccc(C)cc2)nc2cc(C)ccn12 [Compound 13, N-benzyl-N-ethyl-2-(4-methylphenyl)-7-methylimidazo[1,2-a]pyridine-3-acetamide] | 97% | 89% | 42% | 220 to 222 °C | IC50 [1, 7]: 6.99 nM; Ki [1, 7]: 2.97 nM; number of rearings, number of crossings (open field spontaneous activity) versus control (mice [2]; [6]): apparently lower than the control; all elevated plus maze indexes versus control (mice [4]; mice, dose 0.03, 0.3, 3 mg/kg): significantly lower than the control
5 | COCCN(CCN1CCOCC1)C(=O)Cc1c(-c2ccc(C)cc2)nc2cc(C)ccn12.Cl [Compound 25, N-(2-methoxyethyl)-N-(2-morpholinylethyl)-2-(4-methylphenyl)-7-methylimidazo[1,2-a]pyridine-3-acetamide.hydrochloride] | 31% | 0% | 0% | 165 to 167 °C | 
6 | COCCN(CCN1CCOCC1)C(=O)Cc1c(-c2ccc(C)cc2)nc2ccc(C)cn12.Cl [Compound 26, N-(2-methoxyethyl)-N-(2-morpholinylethyl)-2-(4-methylphenyl)-6-methylimidazo[1,2-a]pyridine-3-acetamide.hydrochloride] | 48% | 1% | 0% | 245 to 247 °C | 
7 | CCN(Cc1ccncc1)C(=O)Cc1c(-c2ccc(C)cc2)nc2ccc(C)cn12.Cl [Compound 27, N-ethyl-N-(4-pyridinylmethyl)-2-(4-methylphenyl)-6-methylimidazo[1,2-a]pyridine-3-acetamide.hydrochloride] | 91% | 65% | 0% | 222 to 224 °C | 
8 | CCN(Cc1ccncc1)C(=O)Cc1c(-c2ccc(Cl)cc2)nc2ccc(C)cn12.Cl [Compound 28, N-ethyl-N-(4-pyridinylmethyl)-2-(4-chlorophenyl)-6-methylimidazo[1,2-a]pyridine-3-acetamide.hydrochloride] | 84% | 33% | 0% | 229 to 231 °C | 
9 | CCC(C)N(C)C(=O)c1cc2ccccc2c(-c2ccccc2Cl)n1 (centres unmarked) [PK11195] |  |  |  |  | immobility time in mice tail suspension test, single administration versus control (mice [5]): no significant influence
10 | CNCCCN1c2ccccc2CCc2ccccc21 [desipramine, reference compound] |  |  |  |  | minimum effective dose to generate antidepression activity (mice [3]; mice tail suspension test): 30 mg/kg
11 | CN1C(=O)CN=C(c2ccccc2)c2cc(Cl)ccc21 [diazepam, reference compound] |  |  |  |  | minimum effective dose for generating anxiolytic-like effects (mice [4]; mice elevated plus maze, ip): 2 mg/kg
